Data: article PMC7782499, “Progerinin, an optimized progerin-lamin A binding inhibitor, ameliorates premature senescence phenotypes of Hutchinson-Gilford progeria syndrome” (Communications Biology, 2021)
Several values for one entry are separate records, joined by “and”; a condition that tells them apart may be missing. Equal entries are not always repeated.

Test system: Lmna G609G/+ mouse
Test: Body weight of Lmna G609G/+ mice
Assay type: in vivo
Details: for Lmna G609G/+ body weight, Ave: group average; for Lmna G609G/+ body weight: individual mouse
Text: Fig. 3 In vivo favorable effect of SLC-D011. A Gross morphology of Lmna^G609G/G609G mice (10 weeks old) was ameliorated after injection with SLC-D011. At the same age, the experimental group (D011) of mice were larger than vehicle-injected control (Con) subjects regardless of gender. B, C SLC-D011 increases body weight B and extends life span C of Lmna^G609G/G609G progeria model mouse (Con: n = 8; SLC-D011: n = 8). Compared with 14.8 weeks of average (ave) life span with maximum (max) life span of 15.5 weeks, 20 mg/kg of intraperitoneal (i.p) injection (twice a week) of SLC-D011 could extend the life span upto 19 weeks (max = 21 weeks). Lmna^G609G/G609G mice were injected with SLC-D011 from age of 5-week old, *p < 0.05. D Gross morphology of SLC-D011 injected Lmna^G609G/+ mouse. […] E SLC-D011 increases body weights of Lmna^G609G/+ mice (Con: n = 10; SLC-D011: n = 11), *p < 0.05. F Favorable effect of SLC-D011 on life span of Lmna^G609G/+ mice. Compared with vehicle-injected control group (ave = 46.7 weeks and max = 48 weeks), SLC-D011 treatment obviously extended the average life span to 63 weeks (max = 64 weeks). The injection was started from 32 weeks old, **p < 0.001. “Con” means vehicle (a solvent composed of DMSO and PBS)-injected mouse group. TEXT PRINTED IN THE PICTURE: (C) D011: Kaplan-Meier survival curve in Lmna^G609G/G609G: Ave=19; Kaplan-Meier survival curve in Lmna^G609G/G609G: Max=21 | (F) D011: Kaplan-Meier survival curve in Lmna^G609G/+: Ave=63; Kaplan-Meier survival curve in Lmna^G609G/+: Max=64 DOUBTS OF THE COPYIST ABOUT THIS PICTURE: Panels C and F: the Ave/Max labels are not printed with a group name. They are assigned to D011 (solid curve) or Con (dashed curve) only by their position beside the curves. / Panel C Ave=14.8, Max=15.5 and panel F Ave=46.7, Max=48 stand beside the dashed Con curve. They are left out because Con is the control group, not a substance. / No unit is printed with the Ave/Max values. Only the axis reads Age (weeks).
Animal experiments were performed in a facility certified by the Association for Assessment and Accreditation of Laboratory Animal Care in compliance with animal policies approved by Pusan National University. The mouse work was performed under the study protocol PNU-2019-2181, as approved by the Institutional Animal Care and Use Committee. Lmna^G609G/609G mice were generated by timed mating of heterozygous Lmna^G609G/+ provided by Carlos López-Otín (Universidad de Oviedo, Asturias, Oviedo, Spain). SLC-D011 was mixed with dimethyl sulfoxide (DMSO) and phosphate-buffered saline (PBS). It was then intraperitoneally injected into mice (20 mg/kg twice per week from 5-week-old). SLC-D011 and lonafarnib were orally administrated to mice daily at a concentration of 10 mg/ml in monoolein-based solution. Lonafarnib was generously provided by Merck, the Progeria Research Foundation (PRF) and the PRF Lonafarnib Pre-clinical Drug Supply Program. Control mice were treated with monoolein-based solution alone in the same way. Lmna^G609G/609G mice were treated with clear chemical solution throughout the life span, starting from 5 weeks of age. Lmna^G609G/+ mice were treated via intraperitoneal and oral administrations, starting from 32 weeks of age.
Fig. S10. Or al administration of SLC-D011 suppresses premature aging features of LmnaG609G/+ mi c e . A.
Gross morphology of SLC-D011 treated Lmna G609G/+ mice at 36 weeks old. B. Oral administration of SLC-
D011 increases body weight s of LmnaG609G/+ mi c e (untreated: n=11; SLC-D011: n=12), * p<0.05. C. […]
intensity of H3K9me3 levels in lung, liver, and kidney tissues of age-matched Lmn a +/+ mouse, untreated
LamnG609G/+ mouse and two progerinin- treated LmnaG609G/+ mice (n = 2 independent experiments; one
Student’s t -test), **p < 0.001,*p< 0.05, N.S: not significant .AU, arbitrary units.
Fig. S12. […] A. SLC-D011, compar ed to lonafarnib, reduces […]

[1] = column after week 64 (head empty), IP injection with SLC-D011, ratio to week 32
[2] = week 32, IP injection with SLC-D011, ratio to week 32
[3] = week 33, IP injection with SLC-D011, ratio to week 32
[4] = week 34, IP injection with SLC-D011, ratio to week 32
[5] = week 35, IP injection with SLC-D011, ratio to week 32
[6] = week 36, IP injection with SLC-D011, ratio to week 32
[7] = week 37, IP injection with SLC-D011, ratio to week 32
[8] = week 38, IP injection with SLC-D011, ratio to week 32
[9] = week 39, IP injection with SLC-D011, ratio to week 32
[10] = week 40, IP injection with SLC-D011, ratio to week 32
[11] = week 41, IP injection with SLC-D011, ratio to week 32
[12] = week 42, IP injection with SLC-D011, ratio to week 32
[13] = week 43, IP injection with SLC-D011, ratio to week 32
[14] = week 44, IP injection with SLC-D011, ratio to week 32
[15] = week 45, IP injection with SLC-D011, ratio to week 32
[16] = week 46, IP injection with SLC-D011, ratio to week 32
[17] = week 47, IP injection with SLC-D011, ratio to week 32
[18] = week 48, IP injection with SLC-D011, ratio to week 32
[19] = week 49, IP injection with SLC-D011, ratio to week 32
[20] = week 50, IP injection with SLC-D011, ratio to week 32
[21] = week 51, IP injection with SLC-D011, ratio to week 32
[22] = week 52, IP injection with SLC-D011, ratio to week 32
[23] = week 53, IP injection with SLC-D011, ratio to week 32
[24] = week 54, IP injection with SLC-D011, ratio to week 32
[25] = week 55, IP injection with SLC-D011, ratio to week 32
[26] = week 56, IP injection with SLC-D011, ratio to week 32
[27] = week 57, IP injection with SLC-D011, ratio to week 32
[28] = week 58, IP injection with SLC-D011, ratio to week 32
[29] = week 59, IP injection with SLC-D011, ratio to week 32
[30] = week 60, IP injection with SLC-D011, ratio to week 32
[31] = week 61, IP injection with SLC-D011, ratio to week 32
[32] = week 62, IP injection with SLC-D011, ratio to week 32
[33] = week 63, IP injection with SLC-D011, ratio to week 32
[34] = week 64, IP injection with SLC-D011, ratio to week 32

CC1(C)Oc2cc3oc(=O)ccc3cc2C[C@@H]1OC/C=C/c1ccccc1 [SLC-D011]
Lmna G609G/+ body weight, Ave [1]: 0 | Lmna G609G/+ body weight [1]: 0 | Lmna G609G/+ body weight, Ave (oral administration, week 36, relative body weight): 1 | Lmna G609G/+ body weight, Ave (oral administration, week 38, relative body weight): 1.017 | Lmna G609G/+ body weight, Ave (oral administration, week 40, relative body weight): 1.063 | Lmna G609G/+ body weight, Ave (oral administration, week 42, relative body weight): 0.9995 | Lmna G609G/+ body weight, Ave (oral administration, week 44, relative body weight): 0.9298 | Lmna G609G/+ body weight, Ave (oral administration, week 46, relative body weight): 0.9013 | Lmna G609G/+ body weight, Ave (oral administration, week 48, relative body weight): 0.862 | Lmna G609G/+ body weight, Ave (oral administration, week 50, relative body weight): 0.8331 | Lmna G609G/+ body weight, Ave (oral administration, week 52, relative body weight): 0.7877 | Lmna G609G/+ body weight, Ave (oral administration, week 54, relative body weight): 0.7841 | Lmna G609G/+ body weight, Ave (oral administration, week 56, relative body weight): 0.7247 | Lmna G609G/+ body weight, Ave (oral administration, week 58, relative body weight): 0.7038 | Lmna G609G/+ body weight, Ave (oral administration, week 60, relative body weight): 0.6602 | Lmna G609G/+ body weight, Ave (oral administration, week 62, relative body weight): 0.5992 | Lmna G609G/+ body weight, Ave (oral administration, week 64, relative body weight): 0.3905 | Lmna G609G/+ body weight, Ave (oral administration, week 66, relative body weight): 0 | Lmna G609G/+ body weight, Ave [2]: 1 | Lmna G609G/+ body weight [2]: 1 | Lmna G609G/+ body weight, Ave [3]: 1.01 | Lmna G609G/+ body weight [3]: 1 and 1.038 | Lmna G609G/+ body weight, Ave [4]: 1.003 | Lmna G609G/+ body weight [4]: 1 and 0.9583 and 1.038 | Lmna G609G/+ body weight, Ave [5]: 0.9948 | Lmna G609G/+ body weight [5]: 1 and 0.9167 and 1.038 | Lmna G609G/+ body weight, Ave [6]: 0.9886 | Lmna G609G/+ body weight [6]: 1 and 0.9583 | Lmna G609G/+ body weight, Ave [7]: 0.9733 | Lmna G609G/+ body weight [7]: 1 and 0.9167 | Lmna G609G/+ body weight, Ave [8]: 0.9619 | Lmna G609G/+ body weight [8]: 0.9565 and 0.9167 and 1 | Lmna G609G/+ body weight, Ave [9]: 0.9549 | Lmna G609G/+ body weight [9]: 0.9565 and 0.9167 and 0.9615 | Lmna G609G/+ body weight, Ave [10]: 0.925 | Lmna G609G/+ body weight [10]: 0.913 and 0.875 and 0.9615 and 0.963 | Lmna G609G/+ body weight, Ave [11]: 0.925 | Lmna G609G/+ body weight [11]: 0.913 and 0.875 and 0.9615 and 0.963 | Lmna G609G/+ body weight, Ave [12]: 0.9069 | Lmna G609G/+ body weight [12]: 0.913 and 0.8333 and 0.9231 and 0.963 | Lmna G609G/+ body weight, Ave [13]: 0.9077 | Lmna G609G/+ body weight [13]: 0.913 and 0.875 and 0.9231 and 0.9259 | Lmna G609G/+ body weight, Ave [14]: 0.8732 | Lmna G609G/+ body weight [14]: 0.8696 and 0.7917 and 0.9231 and 0.9259 | Lmna G609G/+ body weight, Ave [15]: 0.8778 | Lmna G609G/+ body weight [15]: 0.8696 and 0.8333 and 0.9231 and 0.8889 | Lmna G609G/+ body weight, Ave [16]: 0.8769 | Lmna G609G/+ body weight [16]: 0.8696 and 0.7917 and 0.9615 and 0.8889 | Lmna G609G/+ body weight, Ave [17]: 0.8478 | Lmna G609G/+ body weight [17]: 0.8261 and 0.7917 and 0.9231 and 0.8519 | Lmna G609G/+ body weight, Ave [18]: 0.8359 | Lmna G609G/+ body weight [18]: 0.8261 and 0.75 and 0.9231 and 0.8519 | Lmna G609G/+ body weight, Ave [19]: 0.8036 | Lmna G609G/+ body weight [19]: 0.7826 and 0.75 and 0.8846 and 0.7778 | Lmna G609G/+ body weight, Ave [20]: 0.8111 | Lmna G609G/+ body weight [20]: 0.7826 and 0.7917 and 0.8846 and 0.7778 | Lmna G609G/+ body weight, Ave [21]: 0.8111 | Lmna G609G/+ body weight [21]: 0.7826 and 0.7917 and 0.8846 and 0.7778 | Lmna G609G/+ body weight, Ave [22]: 0.7901 | Lmna G609G/+ body weight [22]: 0.7826 and 0.75 and 0.8462 | Lmna G609G/+ body weight, Ave [23]: 0.7931 | Lmna G609G/+ body weight [23]: 0.7826 and 0.7917 and 0.8462 | Lmna G609G/+ body weight, Ave [24]: 0.7747 | Lmna G609G/+ body weight [24]: 0.7391 and 0.7917 and 0.8077 | Lmna G609G/+ body weight, Ave [25]: 0.7712 | Lmna G609G/+ body weight [25]: 0.7391 and 0.7917 and 0.8077 | Lmna G609G/+ body weight, Ave [26]: 0.7636 | Lmna G609G/+ body weight [26]: 0.7391 and 0.75 and 0.8077 | Lmna G609G/+ body weight, Ave [27]: 0.7611 | Lmna G609G/+ body weight [27]: 0.7391 and 0.75 and 0.8077 | Lmna G609G/+ body weight, Ave [28]: 0.746 | Lmna G609G/+ body weight [28]: 0.6957 and 0.6667 and 0.8077 | Lmna G609G/+ body weight, Ave [29]: 0.6892 | Lmna G609G/+ body weight [29]: 0.7391 and 0 and 0.8077 | Lmna G609G/+ body weight, Ave [30]: 0.6894 | Lmna G609G/+ body weight [30]: 0.6957 and 0.7692 | Lmna G609G/+ body weight, Ave [31]: 0.6156 | Lmna G609G/+ body weight [31]: 0.6087 and 0.7692 | Lmna G609G/+ body weight, Ave [32]: 0.5947 | Lmna G609G/+ body weight [32]: 0 and 0.6923 | Lmna G609G/+ body weight, Ave [33]: 0.5548 | Lmna G609G/+ body weight [33]: 0.6923 | Lmna G609G/+ body weight, Ave [34]: 0.2637 | Lmna G609G/+ body weight [34]: 0.6154
